From patent US20100292185A1, “BETA-LACTAMASE INHIBITORS” (priority 2009, published 2010)
Where a name gives a salt, the structure may show the parent alone. Read-outs that look alike come from different tables or passages of the source.

How the values were obtained:
[1] = molecular target: T1, SHV-5 β-lactamase (Klebsiella pneumoniae, UniProt P0A3M1); experiment: β-lactamase enzyme inhibition assay (nitrocefin substrate), SHV-5; format: biochemical
T1 construct: expressed as native untagged proteins; made in house; host or cells: E. coli BL21(DE3)
T1 sequence (P0A3M1 22-286): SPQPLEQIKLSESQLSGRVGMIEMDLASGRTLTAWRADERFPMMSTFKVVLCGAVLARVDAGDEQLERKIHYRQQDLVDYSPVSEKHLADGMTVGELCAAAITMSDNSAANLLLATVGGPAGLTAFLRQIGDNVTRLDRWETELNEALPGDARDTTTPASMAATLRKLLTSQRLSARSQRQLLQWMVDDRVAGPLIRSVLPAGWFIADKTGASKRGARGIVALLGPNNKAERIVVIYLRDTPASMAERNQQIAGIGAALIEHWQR
How it was run: (§1)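 Read-out: kinetic A486 over 10 min after adding nitrocefin at 100 μM final. Before substrate addition, enzyme and inhibitor (100–0.005 μM, PBS pH 7.0) sat together for 10 min at 37 °C. IC50 is the concentration halving the initial hydrolysis rate versus no-inhibitor wells.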

[2] = molecular target: T2, CTX-M15 β-lactamase (Escherichia coli, UniProt Q9EXV5); experiment: β-lactamase enzyme inhibition assay (nitrocefin substrate), CTXM-15; format: biochemical
T2 construct: expressed as native untagged proteins; made in house; host or cells: E. coli BL21(DE3)
T2 sequence (Q9EXV5 entry or part of it): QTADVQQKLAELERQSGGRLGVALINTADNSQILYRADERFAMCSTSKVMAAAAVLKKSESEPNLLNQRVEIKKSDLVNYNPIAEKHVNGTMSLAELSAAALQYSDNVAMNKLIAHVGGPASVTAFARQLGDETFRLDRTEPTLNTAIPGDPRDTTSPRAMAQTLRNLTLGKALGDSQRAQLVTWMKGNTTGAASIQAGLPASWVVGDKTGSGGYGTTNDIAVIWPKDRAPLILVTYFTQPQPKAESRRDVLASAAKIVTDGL
How it was run: as §1

[3] = molecular target: T3, p99 AmpC β-lactamase (Enterobacter cloacae, UniProt P05364); experiment: β-lactamase enzyme inhibition assay (nitrocefin substrate), P99 AmpC; format: biochemical
T3 construct: expressed as native untagged proteins; made in house; host or cells: E. coli BL21(DE3)
T3 sequence (P05364 21-381): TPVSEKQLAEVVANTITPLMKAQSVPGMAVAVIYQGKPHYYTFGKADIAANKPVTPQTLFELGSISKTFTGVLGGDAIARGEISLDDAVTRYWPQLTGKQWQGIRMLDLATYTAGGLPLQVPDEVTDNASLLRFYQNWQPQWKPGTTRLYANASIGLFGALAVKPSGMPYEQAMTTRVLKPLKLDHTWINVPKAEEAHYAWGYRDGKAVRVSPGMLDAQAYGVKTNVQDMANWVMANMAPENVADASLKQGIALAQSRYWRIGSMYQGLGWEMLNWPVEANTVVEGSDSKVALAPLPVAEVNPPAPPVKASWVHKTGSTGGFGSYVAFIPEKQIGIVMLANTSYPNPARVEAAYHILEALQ
How it was run: as §1

[4] = molecular target: T4, KPC-2 β-lactamase (Klebsiella pneumoniae, UniProt Q9F663); experiment: β-lactamase enzyme inhibition assay (nitrocefin substrate), KPC-2; format: biochemical
T4 construct: expressed as native untagged proteins; made in house; host or cells: E. coli BL21(DE3)
T4 sequence (Q9F663 25-293 limits assumed): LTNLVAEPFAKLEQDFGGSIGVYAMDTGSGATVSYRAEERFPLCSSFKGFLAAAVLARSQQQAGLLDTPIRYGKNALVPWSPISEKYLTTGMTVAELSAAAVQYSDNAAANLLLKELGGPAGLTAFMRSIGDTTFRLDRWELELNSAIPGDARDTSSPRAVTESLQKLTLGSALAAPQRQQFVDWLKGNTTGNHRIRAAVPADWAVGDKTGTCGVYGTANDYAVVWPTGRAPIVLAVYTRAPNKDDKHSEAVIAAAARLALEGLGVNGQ
How it was run: as §1

[5] = molecular target: T5, VIM-2 metallo β-lactamase (Pseudomonas aeruginosa, UniProt Q9K2N0); experiment: β-lactamase enzyme inhibition assay (nitrocefin substrate), VIM-2; format: biochemical; settings: nitrocefin 100 μM, 37° C., PBS pH 7.0; read-out: VIM-2 IC50
T5 construct: made in house
How it was run: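 VIM-2 was expressed untagged in E. coli BL21(DE3) and purified by two Q sepharose anion-exchange runs plus gel filtration to >90% purity. Compounds at 100–0.005 μM in PBS pH 7.0 were preincubated with enzyme for 10 min at 37° C, then nitrocefin was added at 100 μM final. Hydrolysis was followed kinetically at 486 nm for 10 min; IC50 is the concentration halving the initial rate relative to no-inhibitor wells.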

[6] = molecular target: T6, OXA-23 β-lactamase (Acinetobacter baumannii, UniProt Q9L4P2); experiment: β-lactamase enzyme inhibition assay (nitrocefin substrate), OXA-23 crude extract; format: biochemical; settings: nitrocefin 100 μM, 37° C., PBS pH 7.0; read-out: OXA-23 IC50
T6 construct: crude β-lactamase extracts were prepared from 20 ml overnight cultures; endogenous in cells; host or cells: Acinetobacter baumannii cells containing OXA-23 (crude freeze-thaw extract)
T6 sequence (Q9L4P2 18-273): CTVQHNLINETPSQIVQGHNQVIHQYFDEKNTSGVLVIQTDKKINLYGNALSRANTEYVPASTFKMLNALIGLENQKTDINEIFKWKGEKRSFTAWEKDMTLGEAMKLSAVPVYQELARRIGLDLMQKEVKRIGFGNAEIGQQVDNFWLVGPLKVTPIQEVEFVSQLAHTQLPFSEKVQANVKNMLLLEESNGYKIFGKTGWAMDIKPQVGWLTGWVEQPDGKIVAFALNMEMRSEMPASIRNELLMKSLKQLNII
How it was run: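 Crude enzyme came from freeze-thaw extracts of mid-log OXA-23-carrying A. baumannii grown in MH-II broth at 37° C. Inhibitors (100–0.005 μM in PBS pH 7.0) were preincubated with the enzyme for 10 min at 37° C, then 100 μM nitrocefin (final) was added and read kinetically at 486 nm for 10 min. IC50 was taken from initial hydrolysis rates relative to uninhibited controls.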

[7] = system: E. coli expressing the Class A ESBL SHV-5; experiment: In vitro antibacterial assay of β-lactamase inhibition (broth microdilution MIC), E. coli SHV-5; format: cell-based; settings: in presence of Ceftazidime 8 μg/ml (Examples 1-56)
How it was run: (§2)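 MIC read by eye after 16-20 h at 37° C. Compounds were titrated 2-fold from 8 μg/mL down to 0.015 μg/mL (final) in CAMHB with a β-lactam antibiotic, and wells were inoculated per CLSI with strains grown 3-5 h under 50 μg/mL ampicillin.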

[8] = system: K. pneumoniae expressing the Class A Extended Spectrum Beta-Lactamase (ESBL) CTX-M-15; experiment: In vitro antibacterial assay of β-lactamase inhibition (broth microdilution MIC), K. pneumoniae CTX-M-15; format: cell-based; settings: in presence of Ceftazidime 8 μg/ml (Examples 1-56)
How it was run: as §2

[9] = system: E. cloacae expressing the Class C P99+; experiment: In vitro antibacterial assay of β-lactamase inhibition (broth microdilution MIC), E. cloacae P99+; format: cell-based; settings: in presence of Ceftazidime 8 μg/ml (Examples 1-56)
How it was run: as §2

[10] = system: K. pneumoniae expressing the Class A carbapenemase KPC-2; experiment: microbe, parasite or virus in culture; format: cell-based; settings: in presence of Ceftazidime 8 μg/ml (Examples 1-56)
How it was run: as §2

[11] = system: P. aeruginosa expressing the Class B metallo β-lactamase VIM-2; experiment: In vitro antibacterial assay of β-lactamase inhibition (broth microdilution MIC), P. aeruginosa VIM-2; format: cell-based; settings: in presence of Ceftazidime 16 μg/mL (Examples 1-56)
How it was run: as §2

[12] = nitrocefin 100 μM, 37° C., PBS pH 7.0, read-out: P99 AmpC IC50

Structure (SMILES)	IC50 [1] [nM]	IC50 [2] [nM]	IC50 [3, 12] [nM]	IC50 [4] [nM]	IC50 [5] [nM]	IC50 [6] [nM]	MIC of example compound, E. coli SHV-5 [7] [µg/mL]	MIC of example compound, K. pneumoniae CTX-M-15 [8] [µg/mL]	MIC of example compound, E. cloacae P99+ [9] [µg/mL]	MIC of example compound, K. pneumoniae KPC-2 [10] [µg/mL]	MIC of example compound, P. aeruginosa VIM-2 [11] [µg/mL]	IC50 [3] [nM]
O=C(Cc1ccc(CNCCO)cc1)N[C@@H](Cc1cccc(C(=O)O)c1O)B(O)O [Example 34, (1R)-[2-{4-((2-hydroxy-ethylamino)-methyl)-phenyl}-acetylamino]-(3-carboxy-2hydroxy)benzyl-methylboronic acid formate]	5	7	4	18	580	256	0.5	0.12	0.5	0.03	>8	
NCCNCc1ccc(CC(=O)N[C@@H](Cc2cccc(C(=O)O)c2O)B(O)O)cc1 [Example 35, (1R)-[2-{4-((2-amino-ethylamino)-methyl)-phenyl}-acetylamino]-(3-carboxy-2hydroxy)benzyl-methylboronic acid formate]	2	7	5	17	196	97	0.5	0.25	0.25	0.03	>8	
CN(C)Cc1ccc(CC(=O)N[C@@H](Cc2cccc(C(=O)O)c2O)B(O)O)cc1 [Example 36, (1R)-[2-(4-dimethylaminomethyl-phenyl)-acetylamino]-(3-carboxy-2hydroxy)benzyl-methylboronic acid formate]	2	4	2	5	593	191	0.5	0.12	0.25	0.06	>8	
O=C(Cc1ccc(CN2CCNCC2)cc1)N[C@@H](Cc1cccc(C(=O)O)c1O)B(O)O [Example 37, (1R)-[2-(4-piperazin-1-ylmethyl-phenyl)-acetylamino]-(3-carboxy-2hydroxy)benzyl-methylboronic acid formate]	2	7	2	9	785	83	2	2	2	0.03	>8	
O=C(Cc1ccc(CN(CCO)CCO)cc1)N[C@@H](Cc1cccc(C(=O)O)c1O)B(O)O [Example 39, (1R)-[2-(4-{[bis-(2-hydroxy-ethyl)-amino]-methyl}-phenyl)-acetylamino]-(3-carboxy-2-hydroxy)benzyl-methylboronic acid formate]	970	4	12	26	469	167	0.5	0.5	2	0.03	>8	
C[N+]1(Cc2ccc(CC(=O)N[C@@H](Cc3cccc(C(=O)O)c3O)B(O)O)cc2)CCOCC1 [Example 41, 4-(4-{[2-(3-carboxy-2-hydroxy-phenyl)-1-borono-ethylcarbamoyl]-methyl}-benzyl)-4-methyl-morpholin-4-ium formate]	4	2		10	> 1000	201	0.5	0.25	1	0.03	>8	20
